Results on 16 molecules are retold here after paper PMC9202281 (ACS Omega, 2022).

The target in data set [1] is jack bean urease (EC 3.5.1.5) (Canavalia ensiformis, UniProt P07374). Nature of the data set: Urease inhibition method. The class given is biochemical.
Data set [2] can be described thus: Solubility in solvents for NMR. The class given is physicochemical.

Structures are written as SMILES. Read-outs that look alike come from different tables or passages of the source.

jack bean urease (EC 3.5.1.5), sequence (P07374 whole entry, looked up): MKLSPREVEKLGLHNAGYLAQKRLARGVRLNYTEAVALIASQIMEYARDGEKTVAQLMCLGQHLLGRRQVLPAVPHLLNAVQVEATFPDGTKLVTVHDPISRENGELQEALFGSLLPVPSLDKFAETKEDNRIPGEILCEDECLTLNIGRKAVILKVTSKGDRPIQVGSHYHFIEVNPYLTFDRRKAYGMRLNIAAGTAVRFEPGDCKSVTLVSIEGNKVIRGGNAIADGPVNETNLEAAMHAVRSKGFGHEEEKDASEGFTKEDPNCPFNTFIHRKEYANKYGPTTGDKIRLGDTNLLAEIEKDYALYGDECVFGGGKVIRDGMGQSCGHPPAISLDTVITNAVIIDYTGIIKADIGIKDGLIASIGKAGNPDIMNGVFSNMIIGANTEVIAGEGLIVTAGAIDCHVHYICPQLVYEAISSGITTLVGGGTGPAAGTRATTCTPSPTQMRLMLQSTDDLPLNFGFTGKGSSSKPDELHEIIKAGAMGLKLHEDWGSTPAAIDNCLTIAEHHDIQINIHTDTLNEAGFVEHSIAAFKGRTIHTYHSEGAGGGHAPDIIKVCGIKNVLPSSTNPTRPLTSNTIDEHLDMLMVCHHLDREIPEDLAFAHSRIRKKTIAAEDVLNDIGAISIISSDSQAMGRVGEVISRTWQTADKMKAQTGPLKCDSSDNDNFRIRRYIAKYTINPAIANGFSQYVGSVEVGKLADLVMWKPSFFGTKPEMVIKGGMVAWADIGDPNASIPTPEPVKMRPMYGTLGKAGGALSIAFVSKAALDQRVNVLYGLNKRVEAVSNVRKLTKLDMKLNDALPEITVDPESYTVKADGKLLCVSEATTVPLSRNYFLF

In general, IC50 refers to the concentration that gives 50% inhibition. `O=C1NC(=O)C(C2c3ccccc3C(=O)N2c2ccccc2)C(=O)N1` (stereo not shown) [5a, 5-(3-Oxo-2-phenylisoindolin-1-yl) Barbituric Acid] displayed an IC50 in data set [1] of 1850 ± 60 nM.
In the case of `CC(C)CN1C(=O)c2ccccc2C1C1C(=O)NC(=O)NC1=O` (stereo not shown) [5k, 5-(2-Isobutyl-3-oxoisoindolin-1-yl) Barbituric Acid], the IC50 in data set [1] came out at 1620 ± 50 nM.
The same measure, in the same setting: for `COc1ccc(N2C(=O)c3ccccc3C2C2C(=O)NC(=S)NC2=O)cc1` (stereo not shown) [5n, 5-(2-(4-Methoxyphenyl)-3-oxoisoindolin-1-yl)-2-thiobarbituric Acid] the value was 1340 ± 10 nM.
On the same count and under the same terms, for `CC(C)N1C(=O)c2ccccc2C1C1C(=O)NC(=O)NC1=O` (stereo not shown) [5l, 5-(2-Isopropyl-3-oxoisoindolin-1-yl) Barbituric Acid] the value was 1850 ± 60 nM; for `COc1ccc(N2C(=O)c3ccccc3C2C2C(=O)NC(=O)NC2=O)cc1` (stereo not shown) [5b, 5-(2-(4-Methoxyphenyl)-3-oxoisoindolin-1-yl) Barbituric Acid], 820 ± 30 nM.
On to `CN1C(=O)C(C2OC(=O)c3ccccc32)C(=O)N(C)C1=O` (stereo not shown) [3b, 1,3-Dimethyl-5-(3-oxo-1,3-dihydroisobenzofuran-1-yl) Barbituric Acid], for which the solubility in solvents entry in data set [2] is “soluble in CHCl3”.
`COc1ccc(N2C(=O)c3ccccc3C2C2C(=O)N(C)C(=O)N(C)C2=O)cc1` (stereo not shown) [5m, 1,3-Dimethyl-5-(2-(4-methoxyphenyl)-3-oxoisoindolin-1-yl) Barbituric Acid] came in with an IC50 in data set [1] of 970 ± 10 nM.
Take `Cc1ccc(N2C(=O)c3ccccc3C2C2C(=O)NC(=O)NC2=O)cc1` (stereo not shown) [5g, 5-(3-Oxo-2-(p-tolyl) Isoindolin-1-yl) Barbituric Acid]: the concentration for half-maximal inhibition (IC50) in data set [1] came out at 1090 ± 70 nM.
In data set [1], `O=C1NC(=O)C(C2c3ccccc3C(=O)N2c2cccc(Cl)c2)C(=O)N1` (stereo not shown) [5i, 5-(2-(3-Chlorophenyl)-3-oxoisoindolin-1-yl) Barbituric Acid] had an IC50 of 1220 ± 50 nM.
The same measure, in the same setting: the figure for `Cc1ccc(N2C(=O)c3ccccc3C2C2C(=O)NC(=O)NC2=O)cc1C` (stereo not shown) [5d, 5-(2-(3,4-Dimethylphenyl)-3-oxoisoindolin-1-yl) Barbituric Acid] is 1070 ± 20 nM.
As for `NC(N)=S` [thiourea, reference compound], in data set [1] (read-out: IC50 ± SEM, jack bean urease, triplicate, mean ± SEM), the IC50 was 22000 ± 1200 nM.
`O=C1NC(=O)C(C2c3ccccc3C(=O)N2c2cc(Cl)cc(Cl)c2)C(=O)N1` (stereo not shown) [5j, 5-(2-(3,5-Dichlorophenyl)-3-oxoisoindolin-1-yl) Barbituric Acid] yielded an IC50 in data set [1] of 1780 ± 100 nM.
Same read-out and setting: for `O=C1NC(=O)C(C2c3ccccc3C(=O)N2c2ccc(Cl)c(Cl)c2)C(=O)N1` (stereo not shown) [5f, 5-(2-(3,4-Dichlorophenyl)-3-oxoisoindolin-1-yl) Barbituric Acid] the value was 960 ± 10 nM.
With `O=C1NC(=O)C(C2c3ccccc3C(=O)N2c2ccc(Br)cc2)C(=O)N1` (stereo not shown) [5e, 5-(2-(4-Bromophenyl)-3-oxoisoindolin-1-yl) Barbituric Acid], inhibition in data set [1] was half-maximal at 960 ± 10 nM (IC50).
For `O=C1NC(=O)C(C2c3ccccc3C(=O)N2c2ccc(Cl)cc2)C(=O)N1` (stereo not shown) [5c, 5-(2-(4-Chlorophenyl)-3-oxoisoindolin-1-yl) Barbituric Acid], the IC50 in data set [1] is 1250 ± 50 nM.
The same measure, in the same setting: the figure for `O=C1NC(=O)C(C2c3ccccc3C(=O)N2c2ccc(F)cc2)C(=O)N1` (stereo not shown) [5h, 5-(2-(4-Fluorophenyl)-3-oxoisoindolin-1-yl) Barbituric Acid] is 1280 ± 40 nM.
